Experimental data from patent publication US20260042764A1, “COMPOSITIONS AND METHODS FOR INHIBITION OF KRAS” (TheRas, Inc., priority 2022, published 2026).

Tests used:
GP2d cells (KRAS G12D) = experiment: Cell-based pERK HTRF assay in GP2d cell (Biological Example 2); conditions: GP2d, GP2d (KRAS G12D) cells
In short: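 GP2d (KRAS G12D) cells were plated in DMEM/10% FBS and treated the next day for 60 min with compounds. Dosing used 9-point half-log series starting at 1 μM or 100 nM in 0.25% DMSO. Lysates were read by HTRF pERK (d2/Eu cryptate antibodies) after 4–24 h at room temperature, with excitation at 320 nm and emission at 615 nm.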

[1] = target: T1, Avi-KRAS G12D (2-169) GTP/RAF1 RBD-3xFLAG (51-131) (Homo sapiens, UniProt P01116, G12D); experiment: Raf1-KRAS G12D-GTP disruption HTRF assay (Biological Example 3); type: binding; conditions: KRAS G12D, GTP-loaded
T1 construct: Avi-KRAS G12D (2-169)
T1 sequence (P01116 2-169 isoform P01116-2 G12D): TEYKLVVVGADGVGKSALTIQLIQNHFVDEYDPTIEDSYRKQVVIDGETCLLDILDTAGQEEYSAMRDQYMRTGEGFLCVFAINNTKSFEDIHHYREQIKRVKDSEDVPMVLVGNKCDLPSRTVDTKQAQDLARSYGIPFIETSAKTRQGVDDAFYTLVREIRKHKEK
Procedure: (§1) Biological Example 3: Disrupting RAS-Effector Binding HTRF Assay
(§2) A protein:protein interaction (PPI) Homogeneous Time Resolved Fluorescence (HTRF) assay was used to determine the effectiveness of compounds in disrupting KRAS protein and effector (RAF1) binding.
(§3) The HTRF assay used the following reagents and proteins: (i) 50 nM Avi-KRAS G12D (2-169) GTP/RAF1 RBD-3xFLAG (51-131): (ii) 50 nM Avi-KRAS G12C (2-169) GTP/RAF1 RBD-3xFLAG (51-131): (iii) 50 nM Avi-KRAS G12V (2-169) GTP/RAF1 RBD-3xFLAG (51-131); (iv) 50 nM Avi-KRAS WT (2-169) GTP/RAF1 RBD-3xFLAG (51-131); and (v) 75 nM 3xFLAG-RAF1 RBD (51-131)-Avi. The assay buffer included: 50 mM Tris pH 7.5 (Invitrogen, 15567-027), 100 mM NaCl (Sigma, S5150-IL), 5 mM MgCl2 (Sigma, 63069), 0.1% BSA (Sigma, A7030), 0.01% Tween 20 (Sigma, P7949), 10% DMSO (Cell Signaling, 12611). The bead buffer included: 50 mM Tris pH 7.5 (Invitrogen, 15567-027), 0.01% Tween 20 (Sigma, P7949). An assay volume of 20 μL was used in a 384 well plate-low volume format. Compound titration: 30-0.005 μM, 3x dilution series.
(§4) The HTRF assay employed the following protocol:
(§5) Compounds were dispensed in assay plate (384-well, Grenier Bio-One #784075) using Echo (model 555) with dose response settings: 200 nL final volume, titration from 30 μM as a 10-point dilution series. Proteins and HTRF reagents were mixed and dispensed onto plates, 20 μL per well, and then incubated for 1 h at room temperature, with 700 rpm shaking.
(§6) Plates were analyzed on an Envision plate reader using the following setting: Excitation 320 nm, Bandwidth 75 nm; Emission 615 nm, Bandwidth 85 nm; Gain 100%; Flashes 100; Lag 60 μs. Data was reported as percentage of activity, with DMSO as 100%. Data was plotted and analyzed using Prism 8.
(§7) The biochemical Raf1-KRAS G12D/G12V/G12C/WT-GTP disruption assay IC50 of selected compounds described herein are shown in Table 12.

[2] = target: T2, Avi-KRAS G12C (2-169) GTP/RAF1 RBD-3xFLAG (51-131) (Homo sapiens, UniProt P01116, G12C); experiment: Raf1-KRAS G12C-GTP disruption HTRF assay (Biological Example 3); type: binding; conditions: KRAS G12C, GTP-loaded
T2 construct: Avi-KRAS G12C (2-169)
T2 sequence (P01116 2-169 isoform P01116-2 G12C): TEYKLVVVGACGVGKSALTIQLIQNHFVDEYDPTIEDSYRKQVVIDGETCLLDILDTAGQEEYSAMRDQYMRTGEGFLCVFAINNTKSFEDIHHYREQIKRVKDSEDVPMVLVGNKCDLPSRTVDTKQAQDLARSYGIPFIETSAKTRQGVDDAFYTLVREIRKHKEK
Procedure: as §1, §2, §3, §4, §5, §6, §7

[3] = target: T3, Avi-KRAS G12V (2-169) GTP/RAF1 RBD-3xFLAG (51-131) (Homo sapiens, UniProt P01116, G12V); experiment: Raf1-KRAS G12V-GTP disruption HTRF assay (Biological Example 3); type: binding; conditions: KRAS G12V, GTP-loaded
T3 construct: Avi-KRAS G12V (2-169)
T3 sequence (P01116 2-169 isoform P01116-2 G12V): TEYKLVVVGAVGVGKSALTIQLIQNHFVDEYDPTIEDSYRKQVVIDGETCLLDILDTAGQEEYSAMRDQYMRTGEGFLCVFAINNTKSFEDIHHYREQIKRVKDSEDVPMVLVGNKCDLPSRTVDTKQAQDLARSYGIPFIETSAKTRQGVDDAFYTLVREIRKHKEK
Procedure: as §1, §2, §3, §4, §5, §6, §7

[4] = target: T4, Avi-KRAS WT (2-169) GTP/RAF1 RBD-3xFLAG (51-131) (Homo sapiens, UniProt P01116); experiment: Raf1-KRAS WT-GTP disruption HTRF assay (Biological Example 3); type: binding; conditions: KRAS WT, GTP-loaded
T4 construct: Avi-KRAS WT (2-169)
T4 sequence (P01116 2-169 isoform P01116-2): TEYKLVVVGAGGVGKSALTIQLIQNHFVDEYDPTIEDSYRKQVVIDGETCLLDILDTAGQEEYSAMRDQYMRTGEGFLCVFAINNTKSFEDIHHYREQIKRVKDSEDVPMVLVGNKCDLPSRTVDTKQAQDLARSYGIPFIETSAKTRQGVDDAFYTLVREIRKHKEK
Procedure: as §1, §2, §3, §4, §5, §6, §7

SW620 cells (KRAS G12V) = experiment: Cell-based pERK HTRF assay in SW620 cell (Biological Example 4); conditions: Homo sapiens, SW-620, SW620 (KRAS G12V) cells
In short: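 This assay measures inhibition of ERK phosphorylation downstream of KRAS G12V in intact SW620 cells. Compounds are applied for 4 h over nine half-log concentrations starting at 1 μM, and pERK is quantified by HTRF.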

IC50 (GP2d cells (KRAS G12D)) [nM] | IC50 [1] [nM] | IC50 [2] [nM] | IC50 [3] [nM] | IC50 [4] [nM] | IC50 (SW620 cells (KRAS G12V)) [nM] | SMILES
< 100 | 100 to 1000 | 100 to 1000 | 100 to 1000 | 100 to 1000 | < 100 | CCN(c1nc(OC[C@@]23CCCN2C[C@H](F)C3)nc2c(F)c(-c3ccc(F)c4sc(N)c(C#N)c34)c(C(F)(F)F)cc12)[C@H]1C[C@H](C)N(C(=O)OC2COC2)C1 (atropisomer, axis not shown) [Compound 926]
< 100 | 100 to 1000 | 100 to 1000 | 100 to 1000 | 100 to 1000 | < 100 | CCN(c1nc(OC[C@@]23CCCN2C[C@H](F)C3)nc2c(F)c(-c3ccc(F)c4sc(N)c(C#N)c34)c(C(F)(F)F)cc12)[C@H]1CCN(C(=O)C2CC2)[C@@H]1COC (atropisomer, axis not shown) [Compound 925]
< 100 | 100 to 1000 | 1000 to 10000 | 1000 to 10000 | 1000 to 10000 | < 100 | CN(Cc1cnco1)c1nc(OC[C@@]23CCCN2C[C@H](F)C3)nc2c(F)c(-c3ccc(F)c4sc(N)c(C#N)c34)c(C(F)(F)F)cc12 [Compound 908]
< 100 | 100 to 1000 | 1000 to 10000 | 1000 to 10000 | 1000 to 10000 | < 100 | CN(Cc1ccnnc1)c1nc(OC[C@@]23CCCN2C[C@H](F)C3)nc2c(F)c(-c3ccc(F)c4sc(N)c(C#N)c34)c(C(F)(F)F)cc12 (atropisomer, axis not shown) [Compound 896]
> 1000 | 1000 to 10000 | > 10000 | > 10000 | 1000 to 10000 | > 1000 | CN(CC1COC1)c1nc(OC[C@@]23CCCN2C[C@H](F)C3)nc2c(F)c(-c3ccc(F)c4sc(N)c(C#N)c34)c(C(F)(F)F)cc12 (atropisomer, axis not shown) [Compound 963]
< 100 | 1000 to 10000 | 1000 to 10000 | > 10000 | > 10000 | < 100 | CCN(c1nc(OC[C@@]23CCCN2C[C@H](F)C3)nc2c(F)c(-c3ccc(F)c4sc(N)c(C#N)c34)c(C(F)(F)F)cc12)[C@H]1CCN(c2ccccn2)C1 [Compound 948]

Second part, the compound before the results:

SMILES | IC50 (GP2d cells (KRAS G12D)) [nM] | IC50 [1] [nM] | IC50 [2] [nM] | IC50 [3] [nM] | IC50 [4] [nM] | IC50 (SW620 cells (KRAS G12V)) [nM]
C/C=C/C(=O)N1C[C@@H](N(CC)c2nc(OC[C@@]34CCCN3C[C@H](F)C4)nc3c(F)c(-c4ccc(F)c5sc(N)c(C#N)c45)c(C(F)(F)F)cc23)C[C@@H]1COC (atropisomer, axis not shown) [Compound 845] | < 100 | 100 to 1000 | 100 to 1000 | 100 to 1000 | 100 to 1000 | < 100
CCN(c1nc(OC[C@@]23CCCN2C[C@H](F)C3)nc2c(F)c(-c3ccc(F)c4sc(N)c(C#N)c34)c(C(F)(F)F)cc12)[C@H]1CCN(C(=O)N2CC(F)(F)C2)C1 (atropisomer, axis not shown) [Compound 831] | < 100 | 100 to 1000 | 100 to 1000 | 100 to 1000 | 100 to 1000 | < 100
CCN(c1nc(OC[C@@]23CCCN2C[C@H](F)C3)nc2c(F)c(-c3ccc(F)c4sc(N)c(C#N)c34)c(C(F)(F)F)cc12)[C@H]1C[C@H](C)N(C(=O)C2C[C@@H]2F)C1 (stereo partly drawn) [Compound 886] | < 100 | 100 to 1000 | ≤ 100 | ≤ 100 | 100 to 1000 | < 100
CCN(c1nc(OC[C@@]23CCCN2C[C@H](F)C3)nc2c(F)c(-c3ccc(F)c4sc(N)c(C#N)c34)c(C(F)(F)F)cc12)[C@H]1C[C@H](C)N(C(=O)[C@@H]2C[C@@H]2F)C1 (atropisomer, axis not shown) [Compound 841] | < 100 | 100 to 1000 | 100 to 1000 | 100 to 1000 | 100 to 1000 | < 100
CCN(c1nc(OC[C@@]23CCCN2C[C@H](F)C3)nc2c(F)c(-c3ccc(F)c4sc(N)c(C#N)c34)c(C(F)(F)F)cc12)[C@H]1CCN(C(=O)C2C[C@H]2F)[C@@H]1C (stereo partly drawn) [Compound 874] | < 100 | 100 to 1000 | 100 to 1000 | 100 to 1000 | 100 to 1000 | < 100
CN(Cc1ccccn1)c1nc(OC[C@@]23CCCN2C[C@H](F)C3)nc2c(F)c(-c3ccc(F)c4sc(N)c(C#N)c34)c(C(F)(F)F)cc12 (atropisomer, axis not shown) [Compound 865] | < 100 | 100 to 1000 | 1000 to 10000 | 1000 to 10000 | 1000 to 10000 | < 100
CCN(c1nc(OC[C@@]23CCCN2C[C@H](F)C3)nc2c(F)c(-c3ccc(F)c4sc(N)c(C#N)c34)c(C(F)(F)F)cc12)[C@H]1CCN(C(=O)C2C[C@@H]2F)[C@@H]1C (stereo partly drawn) [Compound 883] | < 100 | 100 to 1000 | 100 to 1000 | 100 to 1000 | 100 to 1000 | < 100
CCN(c1nc(OC[C@@]23CCCN2C[C@H](F)C3)nc2c(F)c(-c3ccc(F)c4sc(N)c(C#N)c34)c(C(F)(F)F)cc12)[C@H]1CCN(C(=O)O[C@@H]2CCCOC2)C1 (atropisomer, axis not shown) [Compound 796] | < 100 | 100 to 1000 | 100 to 1000 | 100 to 1000 | 100 to 1000 | < 100
CCN(c1nc(OC[C@@]23CCCN2C[C@H](F)C3)nc2c(F)c(-c3ccc(F)c4sc(N)c(C#N)c34)c(C(F)(F)F)cc12)[C@H]1C[C@H](COC)N(C(=O)[C@@H]2C[C@@H]2F)C1 (atropisomer, axis not shown) [Compound 869] | < 100 | 100 to 1000 | 100 to 1000 | 100 to 1000 | 100 to 1000 | < 100
CCN(c1nc(OC[C@@]23CCCN2C[C@H](F)C3)nc2c(F)c(-c3ccc(F)c4sc(N)c(C#N)c34)c(C(F)(F)F)cc12)[C@H]1C[C@H](COC)N(C(=O)C2CC2(F)F)C1 (stereo partly drawn) [Compound 861] | < 100 | 100 to 1000 | 100 to 1000 | 100 to 1000 | 100 to 1000 | < 100
CN(Cc1cccnn1)c1nc(OC[C@@]23CCCN2C[C@H](F)C3)nc2c(F)c(-c3ccc(F)c4sc(N)c(C#N)c34)c(C(F)(F)F)cc12 (atropisomer, axis not shown) [Compound 876] | < 100 | 100 to 1000 | 100 to 1000 | 100 to 1000 | 1000 to 10000 | < 100
CN(Cc1cnccn1)c1nc(OC[C@@]23CCCN2C[C@H](F)C3)nc2c(F)c(-c3ccc(F)c4sc(N)c(C#N)c34)c(C(F)(F)F)cc12 (atropisomer, axis not shown) [Compound 872] | < 100 | 100 to 1000 | 100 to 1000 | 100 to 1000 | 1000 to 10000 | < 100
CCN(c1nc(OC[C@@]23CCCN2C[C@H](F)C3)nc2c(F)c(-c3ccc(F)c4sc(N)c(C#N)c34)c(C(F)(F)F)cc12)[C@H]1C[C@H](COC)N(C(=O)[C@H]2CCO2)C1 (atropisomer, axis not shown) [Compound 840] | < 100 | 100 to 1000 | 100 to 1000 | 100 to 1000 | 100 to 1000 | < 100
